In article PMC6403232, “Production and Anticancer Activity of an L-Asparaginase from Bacillus licheniformis Isolated from the Red Sea, Saudi Arabia” (Scientific Reports, 2019) one finds Km data, which are given here for one compound.

For this assay, the system named is T1, ASNase (L-asparaginase) from Bacillus licheniformis KKU-KH14.
T1 construct: gene ansZ
As to conditions: L-asparagine 0.0-0.1 M; standard assay Tris-HCl pH 7.4, 30 min; temperature of the kinetic assay not stated.

What is called Km is the concentration of substrate that gives half-maximal velocity. For the compound `NC(=O)C[C@H](N)C(=O)O` [L-asparagine], the Km is 50 mM.
